Laboratory results as given in patent US6924269B2, “Enzyme inhibitors and methods therefor” (VDF Futureceuticals, Inc., priority 2002, dated 2005).

Experiments:
[1] = target: T1, COX-1 (Homo sapiens, UniProt P23219); assay: COX-1 enzyme inhibition study (human platelets, endogenous arachidonic acid, EIA of PGE2); type: biochemical
T1 construct: the source material was human platelets using endogenous arachidonic acid; endogenous in cells; host or cells: human platelets
Method: COX-1 enzyme inhibition study was performed using a protocol similar to protocols previously described (see e.g., Riendeau D, et al. in Brit. J. Pharmacol. (1997) 121:105-117; or Warner et al. in Proc. Natl. Acad.Sci. (1999) 96:7563-7568). Typically, the source material was human platelets using endogenous arachidonic acid (Vehicle 1% DMSO) at a preincubation time of 15 min at 37 Centigrades and an incubation time of 15 min at 37 Centigrades (Incubation buffer was HBSS buffer with 15mM HEPES pH7.4). Quantitative analysis was performed via EIA determination of PGE2.

[2] = target: T2, COX-2 (Homo sapiens, UniProt P35354); assay: COX-2 enzyme inhibition study (human recombinant, Sf9 cells, 0.3 microM arachidonic acid, PGE2 determination); type: biochemical
T2 construct: host or cells: Sf9 insect cells
T2 sequence (P35354 18-604): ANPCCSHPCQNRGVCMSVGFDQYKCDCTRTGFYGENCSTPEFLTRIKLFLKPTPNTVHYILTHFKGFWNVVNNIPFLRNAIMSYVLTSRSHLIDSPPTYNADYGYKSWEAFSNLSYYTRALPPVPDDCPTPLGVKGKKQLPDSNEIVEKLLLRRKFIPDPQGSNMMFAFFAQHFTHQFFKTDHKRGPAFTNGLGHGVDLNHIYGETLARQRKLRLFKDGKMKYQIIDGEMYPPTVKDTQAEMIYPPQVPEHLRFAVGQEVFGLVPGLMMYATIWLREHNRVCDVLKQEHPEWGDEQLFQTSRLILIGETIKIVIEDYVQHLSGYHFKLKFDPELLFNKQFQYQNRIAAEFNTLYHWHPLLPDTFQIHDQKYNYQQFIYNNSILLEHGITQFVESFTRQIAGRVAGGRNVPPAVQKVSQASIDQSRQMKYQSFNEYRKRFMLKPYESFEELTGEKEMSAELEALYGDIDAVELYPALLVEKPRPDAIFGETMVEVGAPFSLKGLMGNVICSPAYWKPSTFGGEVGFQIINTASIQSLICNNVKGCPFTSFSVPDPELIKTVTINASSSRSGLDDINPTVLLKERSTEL
Method: COX-2 enzyme inhibition study was performed using a protocol similar to protocols previously described (see e.g., Riendeau D, et al. in Can. J. Physiol. Pharmacol. (1997) 75:1088-11095; or Warner et al. in Proc. Natl. Acad.Sci. (1999) 96:7563-7568). Typically, the source material was human recombinant Sf9 cells using 0.3 microM arachidonic acid (Vehicle 1% DMSO) at a preincubation time of 15 min at 37 Centigrades and an incubation time of 15 min at 37 Centigrades (Incubation buffer was 100 mM Tris 1 mM Glutathione, 1 microM hematin, and 0.5mM phenol, pH7.7). Quantitative analysis was performed via ETA determination of PGE2.

T1 sequence (P23219 24-599): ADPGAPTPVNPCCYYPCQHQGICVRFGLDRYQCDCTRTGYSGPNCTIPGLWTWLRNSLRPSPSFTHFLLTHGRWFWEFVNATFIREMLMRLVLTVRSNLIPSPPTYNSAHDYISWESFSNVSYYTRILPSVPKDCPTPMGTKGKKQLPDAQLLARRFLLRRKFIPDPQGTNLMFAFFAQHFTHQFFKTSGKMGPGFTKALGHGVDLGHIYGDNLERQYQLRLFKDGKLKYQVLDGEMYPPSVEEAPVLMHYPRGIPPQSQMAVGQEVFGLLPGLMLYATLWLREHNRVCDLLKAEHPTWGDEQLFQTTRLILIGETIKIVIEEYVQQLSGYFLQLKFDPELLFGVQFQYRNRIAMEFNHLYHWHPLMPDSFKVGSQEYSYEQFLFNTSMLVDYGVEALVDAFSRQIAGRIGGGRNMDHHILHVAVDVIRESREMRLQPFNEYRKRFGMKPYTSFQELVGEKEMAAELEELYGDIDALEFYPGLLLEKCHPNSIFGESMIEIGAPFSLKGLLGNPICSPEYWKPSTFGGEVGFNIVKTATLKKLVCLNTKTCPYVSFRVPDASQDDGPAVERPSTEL

Selectivity COX-1 to COX-2 ([1]; ratio of IC50 values, COX-1 over COX-2) | Substance | COX-1 IC50 [1] | COX-1 (% Inhib.) ([1]; concentration 100 μg/ml) | COX-1 (% Inhib.) ([1]; concentration 1000 μg/ml) | COX-1 (% Inhib.) ([1]; concentration 10 mg/ml) | COX-2 IC50 [2] | COX-2 (% Inhib.) ([2]; concentration 100 μg/ml) | COX-2 (% Inhib.) ([2]; concentration 1000 μg/ml) | COX-2 (% Inhib.) ([2]; concentration 10 mg/ml) | Selectivity COX-2 to COX-1 ([2]; ratio of IC50 values, COX-2 over COX-1)
least 45-fold | Calcium Fructoborate | 222 µg/mL | 29% | 85% | 95% | >10000 µg/mL | 8% | 12% | 10% | –
– | Potassium Boroascorbate | 8570 µg/mL | −5% | −2% | 69% | <100 µg/mL | 77% | 73% | 71% | least 85-fold
